The target of the assay is T1, Prp2 from C. thermophilum (ctPrp2), residues 270-921 (Thermochaetoides thermophila, UniProt G0SEG4).
T1 construct: gene CTHT_0063660; N-terminally truncated residues 270-921, GST tag cleaved with PreScission protease, expressed in E. coli Rosetta 2 (DE3)
T1 sequence (G0SEG4 270-921): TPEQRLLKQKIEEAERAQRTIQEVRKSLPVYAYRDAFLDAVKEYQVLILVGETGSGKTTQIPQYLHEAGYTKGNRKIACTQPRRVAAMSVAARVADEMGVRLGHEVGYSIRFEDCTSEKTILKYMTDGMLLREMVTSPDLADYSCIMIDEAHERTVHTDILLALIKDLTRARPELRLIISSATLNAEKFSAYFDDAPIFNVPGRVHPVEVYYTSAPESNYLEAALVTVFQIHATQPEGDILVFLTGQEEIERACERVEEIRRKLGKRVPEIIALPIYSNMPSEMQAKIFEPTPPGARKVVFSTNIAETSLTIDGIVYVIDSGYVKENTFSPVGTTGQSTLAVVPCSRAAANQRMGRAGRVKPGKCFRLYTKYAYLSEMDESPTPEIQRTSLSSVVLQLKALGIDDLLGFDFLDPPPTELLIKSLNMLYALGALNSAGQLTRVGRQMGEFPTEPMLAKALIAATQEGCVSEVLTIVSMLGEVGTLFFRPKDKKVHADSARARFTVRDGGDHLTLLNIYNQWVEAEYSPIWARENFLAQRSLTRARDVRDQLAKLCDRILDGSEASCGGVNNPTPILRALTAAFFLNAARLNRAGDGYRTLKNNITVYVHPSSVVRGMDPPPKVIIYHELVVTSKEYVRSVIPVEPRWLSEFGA
The assay is described as follows: isothermal titration calorimetry. Format: binding. On the technique in general: In ITC the heat of successive injections is recorded.

For orientation: Kd means the equilibrium constant for the complex coming apart. Higher therefore signals a looser complex. Consider `Nc1ncnc2c1ncn2[C@@H]1O[C@H](COP(=O)(O)OP(=O)(O)O)[C@@H](O)[C@H]1O` [ADP], for which binding was characterised by a dissociation constant (Kd) of 179 nM.
